# Laboratory results taken from the supplement of paper PMC10307832.
# How the values were obtained:
# Assay in all cases: relative viability (nuclei count vs DMSO), 5 days (fraction); higher = more cells survive
# Kobe2602 + Alpelisib = compound: C1=CC(=CC=C1NC(=S)NNC2=C(C=C(C=C2[N+](=O)[O-])C(F)(F)F)[N+](=O)[O-])F [Kobe2602] + Cc1nc(NC(=O)N2CCC[C@H]2C(N)=O)sc1-c1ccnc(C(C)(C)C(F)(F)F)c1 [Alpelisib] (partner 2 µM)
# Outline: (§1)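 Relative viability is defined as nuclei in treated wells over nuclei in vehicle wells. Duplicate plates were run and medians reported. Lung cancer cell lines in 1536-well plates were dosed by pin tool one day after seeding, with one drug or with a fixed anchor-drug dose plus five library-drug doses (not always all listed) in √10 steps, and nuclei were counted after 5 days.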
# Kobe2602 + Olaparib = compound: C1=CC(=CC=C1NC(=S)NNC2=C(C=C(C=C2[N+](=O)[O-])C(F)(F)F)[N+](=O)[O-])F [Kobe2602] + O=C(c1cc(Cc2n[nH]c(=O)c3ccccc23)ccc1F)N1CCN(C(=O)C2CC2)CC1 [Olaparib] (partner 8 µM)
# Outline: as §1
# [1] = compound: COc1cc2nccc(Oc3ccc(NC(=O)C4(C(=O)Nc5ccc(F)cc5)CC4)cc3)c2cc1OC [Cabozantinib] + CC(=O)Nc1cccc(-n2c(=O)n(C3CC3)c(=O)c3c(Nc4ccc(I)cc4F)n(C)c(=O)c(C)c32)c1 [Trametinib] (partner 0.02 µM)
# Outline: as §1
# Cabozantinib + Lapatinib = compound: COc1cc2nccc(Oc3ccc(NC(=O)C4(C(=O)Nc5ccc(F)cc5)CC4)cc3)c2cc1OC [Cabozantinib] + CS(=O)(=O)CCNCc1ccc(-c2ccc3ncnc(Nc4ccc(OCc5cccc(F)c5)c(Cl)c4)c3c2)o1 [Lapatinib] (partner 2 µM)
# Outline: as §1
Cell Line,relative viability (Kobe2602 + Alpelisib; first compound 0.2 µM),relative viability (Kobe2602 + Alpelisib; first compound 0.6325 µM),relative viability (Kobe2602 + Alpelisib; first compound 2 µM),relative viability (Kobe2602 + Alpelisib; first compound 6.325 µM),relative viability (Kobe2602 + Alpelisib; first compound 20 µM),relative viability (Kobe2602 + Olaparib; first compound 0.2 µM),relative viability (Kobe2602 + Olaparib; first compound 0.6325 µM),relative viability (Kobe2602 + Olaparib; first compound 2 µM),relative viability (Kobe2602 + Olaparib; first compound 6.325 µM),relative viability (Kobe2602 + Olaparib; first compound 20 µM),relative viability ([1]; first compound 0.02 µM),relative viability ([1]; first compound 0.06325 µM),relative viability ([1]; first compound 0.2 µM),relative viability ([1]; first compound 0.6325 µM),relative viability ([1]; first compound 2 µM),relative viability (Cabozantinib + Lapatinib; first compound 0.02 µM),relative viability (Cabozantinib + Lapatinib; first compound 0.06325 µM),relative viability (Cabozantinib + Lapatinib; first compound 0.2 µM),relative viability (Cabozantinib + Lapatinib; first compound 0.6325 µM),relative viability (Cabozantinib + Lapatinib; first compound 2 µM)
LXF-289,1.01,1.02,0.976,1.06,0.994,1.05,1.1,1.05,0.955,1.04,0.735,0.654,0.659,0.719,0.695,0.91,0.922,0.896,0.918,0.92
NCI-H23,0.669,0.863,0.68,0.829,0.811,0.367,0.355,0.249,0.277,0.313,,0.358,0.42,0.377,0.389,,1.37,1.07,1.04,0.885
NCI-H322M,0.808,0.81,0.828,0.827,0.792,0.737,0.752,0.776,0.875,0.828,0.521,0.546,0.438,0.525,0.545,0.454,0.632,,0.584,0.58
NCI-H358,0.799,0.836,0.677,0.884,0.827,0.586,0.592,0.589,0.528,0.653,0.114,0.138,0.136,0.139,0.126,0.449,0.418,0.454,0.358,0.369
NCI-H460,0.513,0.55,0.507,0.499,0.444,0.427,0.416,0.455,0.423,0.43,0.133,0.196,0.134,0.159,0.174,1.19,1.13,0.958,0.97,0.981
NCI-H520,0.912,1.12,0.848,0.84,0.859,0.333,0.38,0.381,0.353,0.333,0.699,0.83,0.808,0.73,0.538,1.08,0.924,0.72,0.973,0.566
NCI-H596,0.489,0.438,0.46,0.453,0.415,0.758,0.661,0.718,0.718,0.799,0.94,0.941,0.797,0.779,0.78,1.17,1.21,0.956,1.05,1.02
NCI-H647,1.23,1.37,1.11,1.21,1.12,0.511,0.39,0.55,0.606,0.618,0.541,0.451,0.449,0.424,0.41,1.29,1.45,1.15,1.13,0.734
